Source: patent US20230372288A1, “Application of Aristolochic Acid IVa in Preparation of Antihistamine or Drug for Treating Pneumonia” (priority 2022, published 2023)

Assays:
[1] = tested on: histamine-induced pneumonia (lung tissue inflammatory exudation); assay: Histamine-induced pneumonia, pathological examination of lung tissue; type: in vivo, ICR mice; conditions: histamine 5 mg/kg, HE pathology
Excerpt: 1. Experimental Method • (1) Model establishment, animal grouping and administration are the same as Embodiment 1. • (2) Pathological examination of lung tissue: after the mouse is euthanized due to vertebral detachment, it is dissected, and the lung tissue is taken out. The lung tissue is fixed with 10% neutral formalin for standby. After being fully fixed with formaldehyde, the submitted tissue is dehydrated step by step with ethanol, transparent with xylene, embedded with paraffin, and prepared conventionally into 3 μm of a paraffin section. HE, Masson, and PAS staining are used respectively, and the tissue inflammation exudation conditions are examined under an optical microscope (DP71 type, OLYMPUS, magnified by 400 times).
1. Experimental Method • (1) Model establishment, animal grouping and administration are the same as Contrast example 1. • (2) Pathological examination of lung tissue: same as Embodiment 2.

[2] = tested on: ICR mice; assay: Toxicity test, single gavage, death within 14 days and renal pathology; type: in vivo; conditions: 40 mg/kg once by gavage; for Death rate / Number of dead animals: 10 animals, within 14 days; for Renal pathological examination: survived animals after 14 days
Experimental: SPF-grade ICR mice are used, 18-22 g, with half male and half female. The animals are sourced from Beijing Vital River Laboratory Animal Technology Co., Ltd. After 1 day of adaptive feeding, the test substance is administered.
The mice are randomly divided into 4 groups: a control group (physiological saline is administered once by gavage) (1); an AA-I group (40 mg/kg of AA-I is administered once by the gavage) (2); an AA-II group (40 mg/kg of AA-II is administered once by the gavage) (3); and an AA-Iva group (40 mg/kg of AA-IVa is administered once by the gavage) (4).
Before the animals are administered by the gavage, it is fasted for 12 h without water deprivation. After being administered by the gavage, the animal death conditions within 14 days are recorded after the gavage administration. Survived animals are dissected, and kidneys are taken for the pathological examination.

[3] = tested on: histamine-induced increase in mouse vascular permeability; assay: Histamine-induced increase in auricular vascular permeability, EB exudation test; type: in vivo, ICR mice; conditions: for Ear blue staining compared with histamine model group: observed within 30 min after histamine; for Amount of EB exudation: histamine 5 mg/kg tail vein on 4th day, both ears, n = 10, mean ± SD; for EB exudation reduction rate: histamine 5 mg/kg, vs histamine group
Experimental: ICR mice are divided into 6 groups, including a negative control group (control): physiological saline is administered by gavage for 3 days, and on the 4th day, the physiological saline is administered by tail vein injection; a histamine model group (histamine): the physiological saline is administered by the gavage for 3 days, and 5 mg/kg of the histamine is administered by the tail vein injection on the 4th day; an AA-IVa low-dose treatment group (histamine+AA-IVa/L): 5 mg/kg of AA-IVa is administered by the gavage for 3 days, and 5 mg/kg of the histamine is administered by the tail vein injection on the 4th day; and an AA-IVa high-dose treatment group (histamine+AA-IVa/H): 10 mg/kg of AA-IVa is administered by the gavage for 3 days, and 5 mg/kg of the histamine is administered by the tail vein injection on the 4th day.
AA-Iva: 0.5 wt % CMC-Na is used for preparation, and the concentration is 0.5 mg/ml and 0.25 mg/ml respectively. Histamine: 0.5 mg/ml of histamine solution is prepared with the physiological saline.
4.3 Modeling Method • (1) Principle: the histamine may cause an increase in permeability of capillary and venule walls, and plasma leaks into tissues, leading to local tissue edema. EB is a commonly used indicator for detecting the vascular permeability. After intravenous injection of mixed solution of histamine and EB into the mice, the increase in the vascular permeability caused by the histamine may be observed in a mouse auricle (the auricle is stained blue). • (2) Method for establishing model of increased auricular vascular permeability induced by histamine: after the histamine (0.5 mg/ml) is mixed with 0.8% EB solution at a ratio of 1:1 (volume), the tail vein injection is performed at 20 ml/kg of a volume according to the weight of each mouse. The auricular blue staining condition of the mouse is observed within 30 min after the histamine is administered, and a picture of the auricular blue staining is taken. • (3) Auricular vascular permeability test (EB exudation test): after the above auricular blue staining is observed and photographed, both ears are cut, and cut into pieces. After being soaked in 2 ml of formamide at a room temperature for 48 h, it is filtered with a 200-mesh stainless steel sieve. A filtrate is taken, and the absorbance (A) is measured at 610 nm. According to an EB standard curve, the amount (μg) of EB dye exudation is calculated.
EB exudation reduction rate (%)=(average value of EB exudation in histamine group−average value of EB exudation in administration group)/average value of EB exudation in histamine group×100%.
Statistical analysis is performed by using SPSS 20.0 software. The variance analysis is performed on the amount of EB exudation from the auricle tissue by using an ANOVA program. Data is expressed as mean±standard deviation (x±S), the histamine model group is compared with the control group, and each administration group is compared with the histamine model group, P<0.05 is considered as a significant difference.
ICR mice are divided into 4 groups, including a negative control group (control) (1): physiological saline is administered by gavage for 3 days, and on the 4th day, the physiological saline is administered by tail vein injection; a histamine model group (histamine) (2): the physiological saline is administered by the gavage for 3 days, and on the 4th day, 5 mg/kg of the histamine is administered by the tail vein injection; an AA-I treatment group (histamine+AA-I) (3): 10 mg/kg of AA-I is administered by the gavage for 3 days, and on the 4th day, 5 mg/kg of the histamine is administered by the tail vein injection; and an AA-II treatment group (histamine+AA-II) (4): 10 mg/kg of AA-II is administered by the gavage for 3 days, and on the 4th day, 5 mg/kg of the histamine is administered by the tail vein injection.
Preparation of AA-I and AA-II: 0.5 wt % CMC-Na is used to prepare AA-I and AA-II into 0.5 mg/ml respectively.

[4] = drug 10 mg/kg by gavage for 3 days
[5] = drug 5 mg/kg by gavage for 3 days

SMILES	Thickening of alveolar septa and exudation of inflammatory cells in lung tissue compared to model group ([1]; 10 mg/kg by gavage for 3 days)	Death rate [2]	Number of dead animals [2]	Renal pathological examination [2]	Amount of EB exudation compared to histamine model group (in words) ([3]; 10 mg/kg by gavage for 3 days)	Ear blue staining compared with histamine model group ([3]; 10 mg/kg by gavage for 3 days)	Amount of EB exudation [3, 4]	EB exudation reduction rate [3, 4]	Thickening of alveolar septa and exudation of inflammatory cells in lung tissue compared to model group ([1]; 5 mg/kg by gavage for 3 days)	Amount of EB exudation compared to histamine model group (in words) ([3]; different doses (5 and 10 mg/kg by gavage for 3 days), P<0.001)	Ear blue staining compared with histamine model group ([3]; different doses (5 and 10 mg/kg by gavage for 3 days))	Amount of EB exudation [3, 5]	EB exudation reduction rate [3, 5]
O=C(O)c1cc2c(c3c1c([N+](=O)[O-])cc1ccccc13)OCO2 [AA-II, Aristolochic Acid II]	no significant difference compared to the histamine model group	10%	1	patchy tubular necrosis and tubular swelling	no significant difference	no significant difference	1.09 ± 0.34 µg	7.6%	–	–	–	–	–
COc1cccc2c1cc([N+](=O)[O-])c1c(C(=O)O)cc3c(c12)OCO3 [AA-I, Aristolochic Acid I]	no significant difference compared to the histamine model group	70%	7	diffuse tubular necrosis	no significant difference	no significant difference	1.01 ± 0.28 µg	14.4%	–	–	–	–	–
COc1cc(O)cc2c1cc([N+](=O)[O-])c1c(C(=O)O)cc3c(c12)OCO3 [AA-IVa, aristolochic acid IVa]	significant reduction compared to the model group	–	–	no toxic damage	–	–	0.82 ± 0.25 µg	44.2%	significant reduction compared to the model group	significantly decreased	significantly reduced	0.93 ± 0.20 µg	36.7%
